Data set [1] is described as follows: Plasma protein binding, rapid equilibrium dialysis. As to conditions: 37 °C, read-out: drug bound to plasma proteins. Format: in vitro ADME. An excerpt:
Plasma protein binding plays a crucial role in drug distribution and biological activity. After absorption into systemic circulation, drug molecules may bind to plasma proteins, and the bound drug cannot cross biological membranes, rendering it unavailable to exert a pharmacological effect. Only the free drug, unbound to plasma proteins, is pharmacologically active.
A Rapid Equilibrium Dialysis Plate (Pierce™ RED, Thermo Scientific) was used to determine the percentage of compound binding to plasma proteins. Potassium phosphate buffer was added to each white well, and plasma/compound (1 μM) mixture was added to the red wells. The plate was sealed and incubated at 37 °C on an orbital shaker at 300 rpm for 4 h. Afterward, 50 μL of post‐dialysis samples from the buffer and plasma chambers were transferred into separate microcentrifuge tubes. An equal volume of plasma was added to the buffer sample, while the plasma sample received an equivalent volume of buffer. Precooled IS was added to the assay plate to quench the reaction. Compounds were quantified by LC‐MS/MS. The percentage of free and bound compound was calculated using the following equations: % free = (concentration in buffer chamber/concentration in plasma chamber) × 100, and % bound = 100 − % free.^[ [48] ^] All experiments were performed in duplicate. Propranolol was used as positive control.
Background: In equilibrium dialysis free small molecules cross a membrane that holds back macromolecules.

A further data set concerns JeKo‐1 cells. Description: Annexin V‐FITC/PI staining apoptosis, flow cytometry. The data set is classed as cell-based, human. As to conditions: JeKo‐1, 20 μM, 72 h, early and late apoptosis. An excerpt: This observation aligns with previous studies reporting that ROR1 is highly expressed in B‐cell malignancies, including mantle cell lymphoma, where it plays a crucial role in survival signaling and resistance to apoptosis.^[ [10], [32] ^] Given the higher susceptibility of JeKo‐1 cells to the inhibitor, we selected this model for further apoptotic analysis. However, for completeness, apoptotic data for the SH‐SY5Y cell line are also provided in the Supporting Information (Figure S39, Supporting Information). Specifically, cells were incubated with compounds 17, 20, or 29 (20 μM) for 72 h and a flow cytometry analysis using Annexin V/PI staining was performed. After treatment, a very strong increase in the apoptotic response was observed, in both early and late apoptotic populations compared to the negative control (Figure 4 ). […] These findings are in accordance with the literature and further support the potential of ROR1 inhibition in promoting cell death in mantle cell lymphoma.^[ [33] ^]
Figure 4 Proapoptotic activity of compounds 17, 20, and 29 (20 μM) on JeKo‐1 cells treated for 72 h. A) Representative flow cytometry plots using Annexin V‐FITC/PI staining for apoptosis. B) Related quantitative analysis is reported. Data are expressed as a percentage of live, apoptotic, and necrotic cells. Results are shown as mean ± standard deviation (SD) from three independent experiments. *** denote p < 0.001 versus Ctrl.
Apoptosis of the cells was assessed using annexin V‐FITC/PI reagents. JeKo‐1 cells (60 × 10^3 cells/well) were seeded into 24‐well plates and incubated for 72 h with compounds (20 and 10 μM). After treatment, the collected cells were resuspended in a 100 μL assay buffer, then 5 Annexin V‐FITC and 1 PI reagents were added following incubation for 20 min at room temperature according to the manufacturer's protocol (Dead Cell Apoptosis Kits with Annexin V for Flow Cytometry, Thermo Fisher Scientific). Cells were analyzed with a Becton Dickinson FACScan flow cytometer using the Cell Quest software, version 4 (Franklin Lakes, NJ, USA).^[ [46] ^]

The nature of data set [2]: Liver microsomal stability. Format: in vitro ADME, mouse. The protocol:
To evaluate the metabolic stability of our hit compound and assess its drug‐likeness, we investigated the microsomal stability of 17 by incubating it with mouse liver microsomes. We monitored the loss of the compound over time under CYP‐mediated metabolic pathways (Figure 7A). The natural logarithm of the percentage remaining of the compound, calculated by comparing the concentration at each time point with the t0 sample, was plotted against time, yielding a linear regression (R ^2 = 0.98).
The liver microsomal stability assay of compound 17 was conducted as previously described.^[ [47] ^] Briefly, mouse (CD‐1) liver microsomes (Thermo Fisher Scientific, Bremen, Germany) were used, and the reaction was initiated by the addition of NADPH. The incubation was carried out 37 °C for 15, 30, 45, and 60 min in a Thermomixer comfort (Eppendorf, Hamburg, Germany). The reaction was stopped by the addition of ice‐cold methanol containing IS. Finally, the samples were centrifuged, and the supernatants were injected into the LC‐MS. […] All experiments were performed in triplicate, and results were expressed as the in vitro microsomal half‐life (t 1/2), calculated using the equation t 1/2 = 0.693/b, where b is the slope of the linear regression obtained by plotting the natural logarithm of the remaining parent compound fraction against incubation time.
Background: Liver microsomes are a subcellular fraction often used to study metabolism.

The target in a further data set is T1, ROR1 (Homo sapiens, UniProt Q01973).
T1 construct: endogenous in cells; host or cells: JeKo-1
Description: Cellular Thermal Shift Assay (CETSA). The data set is classed as cell-based. As to conditions: JeKo‐1, 40 μM, 2 h, 45–58 °C. The protocol:
To further ascertain the binding between 17 and ROR1, we performed CETSA, a cell‐based test allowing us to carry out both qualitative and quantitative analyses of the direct interaction of a drug candidate to a target protein inside a cell.^[ [34] ^] CETSA assay was performed on JeKo‐1 cell line incubated with 17 for 2 h. After the treatment, ROR1 levels were evaluated by western blotting analysis. […] These findings provide strong evidence that the inhibitor effectively engages with ROR1 in cells, further supporting its mechanism of action (Figure 5 ). Ponatinib was used as a positive control (Figure S40, Supporting Information).
Figure 5 CETSA identifies ROR1 protein in the binding with 17 in JeKo‐1 cells. A) CETSA western blots and B) corresponding quantitative analysis of band intensity. […] Densitometry‐based quantification of western blotting signals was calculated by first normalizing to α‐tubulin levels in individual samples. […]
The CETSA is particularly suitable for identifying the interaction between ligands and their protein targets. […] The change in the thermal stability of the target protein is measured by the amount of residual soluble protein at different temperatures, comparing treated samples with control samples.^[ [32] ^] […] The amount of the soluble target protein was assessed by western blotting analysis.

T1 sequence (Q01973 30-937): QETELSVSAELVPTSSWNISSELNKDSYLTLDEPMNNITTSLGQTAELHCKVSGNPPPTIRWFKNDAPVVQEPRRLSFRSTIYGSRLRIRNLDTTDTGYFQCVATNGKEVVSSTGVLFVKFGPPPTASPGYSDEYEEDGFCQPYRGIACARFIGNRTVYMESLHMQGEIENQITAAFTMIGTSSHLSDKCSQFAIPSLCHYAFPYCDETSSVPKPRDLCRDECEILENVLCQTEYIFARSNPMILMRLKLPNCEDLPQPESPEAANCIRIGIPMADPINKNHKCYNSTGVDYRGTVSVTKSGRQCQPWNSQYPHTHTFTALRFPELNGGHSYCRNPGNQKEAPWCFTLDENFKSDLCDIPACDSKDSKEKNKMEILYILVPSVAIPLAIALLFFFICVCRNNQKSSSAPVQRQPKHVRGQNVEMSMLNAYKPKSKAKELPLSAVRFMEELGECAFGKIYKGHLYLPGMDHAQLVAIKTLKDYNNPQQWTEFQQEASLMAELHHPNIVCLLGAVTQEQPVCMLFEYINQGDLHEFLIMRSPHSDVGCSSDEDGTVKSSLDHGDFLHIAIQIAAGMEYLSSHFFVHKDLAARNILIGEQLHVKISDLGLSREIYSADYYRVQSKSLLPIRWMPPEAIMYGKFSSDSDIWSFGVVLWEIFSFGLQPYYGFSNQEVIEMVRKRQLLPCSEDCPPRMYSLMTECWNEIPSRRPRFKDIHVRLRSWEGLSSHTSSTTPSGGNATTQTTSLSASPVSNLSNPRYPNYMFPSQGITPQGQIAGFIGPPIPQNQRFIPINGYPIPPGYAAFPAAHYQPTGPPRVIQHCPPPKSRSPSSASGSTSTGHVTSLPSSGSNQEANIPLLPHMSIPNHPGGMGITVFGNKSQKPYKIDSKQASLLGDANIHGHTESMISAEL

Usually half-life stands for the time in which the quantity being followed falls by half. A lower half-life goes with fast loss. With `O=C(NCc1ccc(-c2ccccc2)cc1)Nc1ccc(NCC2CCNCC2)cc1C(F)(F)F` [Compound 17], the fraction unbound at 4 h, 1 μM in data set [1] stood at 0.01. In the data set on JeKo‐1 cells, this compound had an apoptotic cells of 89.02 ± 3.12%. For the same compound, the degradation entry in data set [2] (after 60 min with mouse microsomes) was “≈ 20%”. Besides, the half-life in data set [2] (mouse (CD‐1) liver microsomes, NADPH, 37 °C) is ~3.3 h. The ROR1 thermal stabilization entry on ROR1 is reported as “strong stabilization”.
